Assay [1] deals with T1, PKCα (Homo sapiens, UniProt P17252). Briefly: Protein Kinase Cα radioactive assay, peptide substrate Ac-Ser-Phe-Arg-Arg-Arg-NH2 (Example 1). The following applies: peptide substrate; read-out: PKCα inhibitory potency IC50. Details: purchased Pan Vera. It is filed as biochemical. As to the method:
Protein Kinase C Assay (general). The peptides […] (for PKC α, β and γ) and acetyl-[…] (for PKC ε and ζ) were used as substrates. […] Total reaction volume was 50 μL. […] Following an additional 5 min incubation at ambient temperature, 75 μL from each reaction well was transferred into each well of a Unifilter (P81 cellulose phosphate paper) assay plate and washed four times with 0.1% phosphoric acid in water. […] IC50 values were calculated using GraFit (Erithacus Software Limited) and Ki values were calculated using Enzyme Kinetics, SigmaPlot (SPSS Inc.) […] An analogous protocol was employed for peptide 4 versus variable [[…]]. […] An analogous protocol was employed for peptide 4 versus variable [ATP]. Protein Kinase Cα Assay (Ki determination for peptide 6 versus variable […] substrate). […] The reaction was initiated as described above. […] Following an additional 5 min incubation at ambient temperature, 75 μL from each reaction well was transferred into each well of a Unifilter (P81 cellulose phosphate paper) assay plate and washed four times with 0.1% phosphoric acid in water. […] IC50 values were calculated using GraFit (Erithacus Software Limited) and Ki values were calculated using Enzyme Kinetics, SigmaPlot (SPSS Inc.)

Assay [2] has as its target T1, PKCα. The note with it: cited from earlier work.
The next assay has as its target PKC β1 (Homo sapiens, UniProt P05771). The note with it: cited from earlier work.
Another assay deals with PKCγ (Homo sapiens, UniProt P05129). Details: purchased Panvera. The following applies: cited from earlier work.
The target in the next assay is PKCδ (Homo sapiens, UniProt Q05655). Details: purchased Panvera. The following applies: literature values; relative to most potently inhibited isoform (=1); cited from earlier work.
Chain of PKCδ (Q05655 whole entry, canonical isoform): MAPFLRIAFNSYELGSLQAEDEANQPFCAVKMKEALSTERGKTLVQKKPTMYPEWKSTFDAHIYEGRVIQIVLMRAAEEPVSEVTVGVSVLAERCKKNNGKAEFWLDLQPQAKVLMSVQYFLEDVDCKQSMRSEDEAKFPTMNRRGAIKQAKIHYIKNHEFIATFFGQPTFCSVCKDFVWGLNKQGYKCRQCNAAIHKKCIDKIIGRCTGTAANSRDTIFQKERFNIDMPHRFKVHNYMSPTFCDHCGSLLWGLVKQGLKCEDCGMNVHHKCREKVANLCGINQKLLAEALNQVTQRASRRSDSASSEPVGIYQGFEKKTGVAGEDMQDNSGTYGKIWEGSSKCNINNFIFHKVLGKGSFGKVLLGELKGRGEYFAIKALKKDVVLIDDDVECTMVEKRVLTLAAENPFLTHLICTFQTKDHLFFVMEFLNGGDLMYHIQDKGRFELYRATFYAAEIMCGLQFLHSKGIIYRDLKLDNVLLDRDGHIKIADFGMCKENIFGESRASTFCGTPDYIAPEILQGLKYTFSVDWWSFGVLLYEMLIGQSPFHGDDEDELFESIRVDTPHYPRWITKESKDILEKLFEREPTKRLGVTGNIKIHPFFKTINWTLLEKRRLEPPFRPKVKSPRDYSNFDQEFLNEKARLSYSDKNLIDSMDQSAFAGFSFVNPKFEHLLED
The target in another assay is T2, PKCε (Homo sapiens, UniProt Q02156).
T2 sequence (Q02156 1-737): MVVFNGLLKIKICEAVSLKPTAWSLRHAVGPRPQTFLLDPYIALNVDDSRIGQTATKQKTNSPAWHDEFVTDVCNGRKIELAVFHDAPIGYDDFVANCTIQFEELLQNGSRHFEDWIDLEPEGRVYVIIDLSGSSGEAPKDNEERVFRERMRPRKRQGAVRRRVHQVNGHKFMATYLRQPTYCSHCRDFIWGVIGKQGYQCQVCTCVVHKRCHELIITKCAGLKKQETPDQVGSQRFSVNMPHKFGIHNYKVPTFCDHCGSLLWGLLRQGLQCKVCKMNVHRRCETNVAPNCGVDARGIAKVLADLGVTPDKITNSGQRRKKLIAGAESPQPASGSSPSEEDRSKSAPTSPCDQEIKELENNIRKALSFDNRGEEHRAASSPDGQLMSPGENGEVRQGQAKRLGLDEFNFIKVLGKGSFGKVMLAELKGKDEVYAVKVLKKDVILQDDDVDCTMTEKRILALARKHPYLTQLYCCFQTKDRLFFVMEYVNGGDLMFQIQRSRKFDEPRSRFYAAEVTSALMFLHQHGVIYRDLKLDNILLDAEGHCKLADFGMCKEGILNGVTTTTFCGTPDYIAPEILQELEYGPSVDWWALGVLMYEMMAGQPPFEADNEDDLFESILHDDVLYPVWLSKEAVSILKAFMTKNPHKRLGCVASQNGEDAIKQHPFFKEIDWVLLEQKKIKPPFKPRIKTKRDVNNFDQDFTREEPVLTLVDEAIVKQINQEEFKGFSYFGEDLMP
Also on record: purchased Panvera. The note with it: cited from earlier work.

For another assay, the target named is PKCη (Homo sapiens, UniProt P24723). Also on record: purchased Panvera. The note with it: cited from earlier work.
Chain of PKCη (P24723 whole entry): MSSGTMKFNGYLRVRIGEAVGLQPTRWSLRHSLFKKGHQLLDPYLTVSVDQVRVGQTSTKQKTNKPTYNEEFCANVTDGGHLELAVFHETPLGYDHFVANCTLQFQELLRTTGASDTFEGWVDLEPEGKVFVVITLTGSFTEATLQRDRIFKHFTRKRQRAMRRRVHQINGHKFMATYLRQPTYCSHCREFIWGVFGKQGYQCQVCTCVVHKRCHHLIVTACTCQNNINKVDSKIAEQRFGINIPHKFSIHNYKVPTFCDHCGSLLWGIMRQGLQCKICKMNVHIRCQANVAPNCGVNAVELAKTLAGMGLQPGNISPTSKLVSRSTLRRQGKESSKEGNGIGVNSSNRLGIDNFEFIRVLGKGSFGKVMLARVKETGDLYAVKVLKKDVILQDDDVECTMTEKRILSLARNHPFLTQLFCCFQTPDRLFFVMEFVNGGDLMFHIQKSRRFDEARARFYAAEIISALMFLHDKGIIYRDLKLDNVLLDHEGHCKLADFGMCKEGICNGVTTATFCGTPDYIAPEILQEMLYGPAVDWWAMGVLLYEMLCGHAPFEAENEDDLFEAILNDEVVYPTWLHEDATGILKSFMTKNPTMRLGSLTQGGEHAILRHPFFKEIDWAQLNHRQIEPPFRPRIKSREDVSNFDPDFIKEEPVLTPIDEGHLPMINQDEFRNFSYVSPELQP
Another assay addresses T3, PKCζ (Homo sapiens, UniProt Q05513).
T3 sequence (Q05513 1-592): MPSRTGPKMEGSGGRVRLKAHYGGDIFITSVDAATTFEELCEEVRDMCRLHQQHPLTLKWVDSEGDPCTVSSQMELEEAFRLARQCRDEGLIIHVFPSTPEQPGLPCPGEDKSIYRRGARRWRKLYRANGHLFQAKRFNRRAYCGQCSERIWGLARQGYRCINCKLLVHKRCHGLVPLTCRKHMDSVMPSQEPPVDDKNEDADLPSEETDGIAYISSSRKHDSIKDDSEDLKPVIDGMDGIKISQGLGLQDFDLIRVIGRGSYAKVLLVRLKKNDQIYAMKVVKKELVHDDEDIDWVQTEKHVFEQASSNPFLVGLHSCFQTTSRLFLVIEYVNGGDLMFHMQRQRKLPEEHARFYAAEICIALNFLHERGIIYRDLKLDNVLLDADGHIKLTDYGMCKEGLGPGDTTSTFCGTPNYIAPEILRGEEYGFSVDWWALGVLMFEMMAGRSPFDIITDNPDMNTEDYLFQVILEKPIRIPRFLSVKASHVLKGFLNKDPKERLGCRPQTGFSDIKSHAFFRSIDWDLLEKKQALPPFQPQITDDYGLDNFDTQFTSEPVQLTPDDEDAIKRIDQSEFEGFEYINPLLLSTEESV
Details: purchased Panvera. The note with it: cited from earlier work.

By IC50 is commonly meant the concentration that inhibits the measured activity by half.

Read-outs that look alike come from different tables or passages of the source. Starred links: 1 amine or outer side, 2 acyl side, 3 side chain; linkers in the order of their positions; H or OH if unused. Non-standard residues stand in square brackets, D forms with d. Residues, ends and D or L forms follow the SMILES beside them. *: point of attachment. Benzoyl(4-(pyrrol-1-yl)) = O=C(c1ccc(-n2cccc2)cc1)*; Cysteamide = C(CS[*:3])N[*:1]; Dap = NC[C@H](N)C(=O)O

Chain of PKC β1 (P05771 whole entry): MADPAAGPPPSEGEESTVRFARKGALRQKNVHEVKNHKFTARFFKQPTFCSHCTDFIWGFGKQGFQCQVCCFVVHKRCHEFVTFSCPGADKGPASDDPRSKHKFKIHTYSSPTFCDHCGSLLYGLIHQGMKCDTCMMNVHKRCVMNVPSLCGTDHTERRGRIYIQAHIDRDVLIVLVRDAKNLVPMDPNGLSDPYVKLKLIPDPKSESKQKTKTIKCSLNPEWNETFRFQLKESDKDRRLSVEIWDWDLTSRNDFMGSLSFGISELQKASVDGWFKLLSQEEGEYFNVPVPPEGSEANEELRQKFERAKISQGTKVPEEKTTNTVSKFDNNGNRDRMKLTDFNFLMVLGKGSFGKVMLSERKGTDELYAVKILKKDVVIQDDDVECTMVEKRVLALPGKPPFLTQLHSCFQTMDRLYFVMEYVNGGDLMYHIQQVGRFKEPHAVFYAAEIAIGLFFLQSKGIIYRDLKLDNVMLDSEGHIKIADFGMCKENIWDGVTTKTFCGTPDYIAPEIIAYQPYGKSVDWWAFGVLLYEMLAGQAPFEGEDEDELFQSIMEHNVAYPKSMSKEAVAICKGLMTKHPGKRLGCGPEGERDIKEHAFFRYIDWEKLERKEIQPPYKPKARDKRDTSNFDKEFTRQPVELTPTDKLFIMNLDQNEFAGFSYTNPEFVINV

In the case of `CC(=O)N[C@@H](C)C(=O)N[C@@H](CCCNC(=N)N)C(=O)N[C@@H](CCCNC(=N)N)C(=O)NCC(=O)N[C@@H](CNC(=O)c1ccc(-n2cccc2)cc1)C(=O)N[C@@H](CC(C)C)C(=O)N[C@@H](CCCNC(=N)N)C(=O)N[C@@H](CCC(N)=O)C(=O)N[C@@H](C)C(=O)NCCS` [Compound 2] (Ac-ARRG[Dap](Benzoyl(4-(pyrrol-1-yl)))LRQA-Cysteamide), the IC50 on PKCα [1] is 5.7 ± 0.4 µM.

In the case of `CC(=O)c1c(O)c(C)c(O)c(Cc2c(O)c3c(c(C(=O)/C=C/c4ccccc4)c2O)OC(C)(C)C=C3)c1O` [Rottlerin, rottlerin], at PKCα [2], the “Fold selectivity (IC50), PKC α” value is recorded as 10 fold. For the same compound, the “Fold selectivity (IC50), PKC β1” value is 14 fold at PKC β1 and 10 fold at PKC β1 (listed as rottlerin). Also, at PKCγ, the “Fold selectivity (IC50), PKC γ” value is 13 fold. Besides, the “Fold selectivity (IC50), PKC δ” value on PKCδ is 1 fold. For the same compound, the “Fold selectivity (IC50), PKC ε” value at PKCε is recorded as 33 fold. Further, the “Fold selectivity (IC50), PKC η” value at PKCη is 27 fold. At PKCζ, the “Fold selectivity (IC50), PKC ζ” value is given as 33 fold.

The record behind these values is patent US20070254312A1, “Protein Kinase Inhibitors and Methods for Identiying Same” (priority 2004, published 2007).
